Laboratory results taken from the NIST ThermoML archive (doi:10.1016/j.jct.2008.01.007).
Numbers after ± are expanded uncertainties.

Settings: 101 kPa, Liquid

Question: What does the source list for `OCCN1CCOCC1` [4-morpholineethanol]?
Answer: mass density (293.15 K): 1076.58 ± 3.1 kg/m3; viscosity (293.15 K): 26.58 ± 1.8 mPa·s; mass density (303.15 K): 1066.51 ± 3 kg/m3; viscosity (303.15 K): 21.99 ± 1.5 mPa·s; mass density (313.15 K): 1059.19 ± 2.8 kg/m3; viscosity (313.15 K): 17.32 ± 1.2 mPa·s; mass density (323.15 K): 1052.64 ± 2.7 kg/m3; viscosity (323.15 K): 12.86 ± 0.92 mPa·s; mass density (333.15 K): 1046.43 ± 2.6 kg/m3; viscosity (333.15 K): 8.284 ± 0.64 mPa·s
